Source: US20080177075A1, “Compositions For Progeny Gender Control” (AQ+PLC Stephen Mabbott Associates, priority 2004, published 2008)

From the text: Suitable aqueous based compositions can be prepared by using an intermediate diluent such as a polyol, including glycols, preferably propylene glycol, glycerine, or sorbitol, and a wetting agent.

For `Oc1cccc2cccnc12` [8-hydroxyquinoline], the “solubility in aqueous solution” value was “generally insoluble or only poorly soluble”.
